# Source: ChEMBL document CHEMBL1155560, “Two complex proline esters from the sea hare Stylocheilus longicauda” (J Nat Prod, 2000)
# What was measured:
# Assay type in all cases: functional, cell-based
# A549 = experiment: Cytotoxicity against human A549 cells
# P388 = experiment: Cytotoxicity against mouse P388 cells
# [1] = Cytotoxicity against human HTB38 cells; conditions: HTB-38
Compound,IC50 (A549),IC50 (P388),IC50 [1]
C=C(C/C=C/C=C/Cl)CC(OC(=O)[C@@H]1CCC(=O)N1C)C(C)(C)C (stereo partly specified),2.5 µg/mL,2.5 µg/mL,2.5 µg/mL
C=C[C@](C)(CCC=C(C)C)c1ccc2c3c(c[nH]c13)C[C@@H](COC(C)=O)NC(=O)[C@H](C(C)C)N2C [LYNGBYATOXIN A ACETATE],0.05 µg/mL,0.05 µg/mL,0.05 µg/mL
